Values after ≈ are worked out from the molar mass of the structure shown.
Tests used:
[1] = target: T1, Serine/threonine-protein kinase PknB (Mycobacterium tuberculosis, UniProt P9WI81); test: Inhibition of Mycobacterium tuberculosis recombinant PknB (1 to 331 residues) expressed in Escherichia coli BL21-Rosetta cells using GarA and ATP as substrate preincubated with enzyme for 10 mins followed by substrate addition and measured after 1 hr by ATP-competitive biochemical assay
T1 sequence (P9WI81 whole entry): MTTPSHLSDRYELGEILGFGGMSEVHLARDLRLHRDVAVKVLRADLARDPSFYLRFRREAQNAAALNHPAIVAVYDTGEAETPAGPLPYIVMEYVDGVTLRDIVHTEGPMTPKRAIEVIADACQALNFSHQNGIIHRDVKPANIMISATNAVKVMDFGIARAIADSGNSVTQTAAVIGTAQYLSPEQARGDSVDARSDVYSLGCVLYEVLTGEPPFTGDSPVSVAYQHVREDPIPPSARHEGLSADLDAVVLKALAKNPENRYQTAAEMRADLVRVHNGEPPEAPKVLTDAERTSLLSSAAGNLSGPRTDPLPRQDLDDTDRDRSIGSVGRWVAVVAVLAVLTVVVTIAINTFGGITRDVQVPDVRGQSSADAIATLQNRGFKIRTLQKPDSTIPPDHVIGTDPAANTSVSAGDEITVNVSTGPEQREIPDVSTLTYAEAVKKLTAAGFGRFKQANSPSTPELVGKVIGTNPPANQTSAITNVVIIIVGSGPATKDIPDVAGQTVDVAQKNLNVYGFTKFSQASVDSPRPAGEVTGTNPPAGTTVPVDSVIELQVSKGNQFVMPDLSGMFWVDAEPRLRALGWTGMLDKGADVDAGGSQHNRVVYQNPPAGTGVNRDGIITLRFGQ

[2] = target: Cyclin-dependent kinase 2/cyclin A (Homo sapiens, UniProt P24941); test: Inhibition of human Cdk2/Cyclin A using Myelin basic protein as substrate by ATP competitive assay; assay type: toxicity
[3] = target: T1, Serine/threonine-protein kinase PknB; test: Binding affinity to Mycobacterium tuberculosis recombinant N-terminal His-tagged PknB (1 to 331 residues) expressed in Escherichia coli DH5alpha cells by microscale thermophoresis analysis
[4] = system: Mycobacterium tuberculosis; test: Antimycobacterial activity against Mycobacterium tuberculosis H37Ra ATCC 25177 assessed as inhibition of bacterial growth incubated for 12 days by Alamar Blue based fluorescence analysis; assay type: functional; settings: H37Ra ATCC 25177, 288 h, time 12 day
[5] = Toxicity against Zebrafish embryo assessed as embryo survival at 5 uM incubated for 5 days and measured daily; set-up: species or system Danio rerio; settings: zebrafish embryos, time 5 day
THP-1 = test: Cytotoxicity against human THP-1 cells assessed as reduction in cell viability incubated for 72 hrs by CellTiter-Glo luminescent assay; assay type: toxicity, cell-based; settings: thp-1, 72 h
[6] = Lipophilicity, logD of the compound in octanol and phosphate buffer at pH 7.4 at 66.7 uM by LC-MS/MS analysis; assay type: physicochemical; settings: octanol/water, pH 7.4, 66.7 µM
[7] = target: Serine/threonine-protein kinase mTOR (Homo sapiens, UniProt P42345); test: Binding affinity to human partial length mTOR (L1382 to W2549 residues) expressed in mammalian expression system by KdELECT kinase assay; assay type: toxicity
CDK4/Cyclin D3 = CDK4/Cyclin D3 (Homo sapiens, UniProt P11802); test: Binding affinity to human full length CDK4 (M1 to E303 residues) expressed in mammalian expression system/CyclinD3 by KdELECT kinase assay; assay type: toxicity
[8] = target: T1, Serine/threonine-protein kinase PknB; test: Binding affinity to Mycobacterium tuberculosis partial length PknB (M1 to G279 residues) expressed in mammalian expression system by KdELECT kinase assay
[9] = target: Glycogen synthase kinase-3 beta (Homo sapiens, UniProt P49841); test: Binding affinity to human full length GSK-3 beta (M1 to T433 residues) expressed in mammalian expression system by KdELECT kinase assay; assay type: toxicity
[10] = target: Serine/threonine-protein kinase pim-1 (Homo sapiens, UniProt P11309); test: Binding affinity to human partial length Pim1 (A15 to K313 residues ) expressed in bacterial expression system by KdELECT kinase assay; assay type: toxicity
[11] = Selectivity ratio of Kd for human partial length mTOR (L1382 to W2549 residues) expressed in mammalian expression system to Kd for Mycobacterium tuberculosis partial length PknB (M1 to G279 residues) expressed in mammalian expression system
[12] = Selectivity ratio of Kd for human full length CDK4 (M1 to E303 residues) expressed in mammalian expression system/CyclinD3 to Kd for Mycobacterium tuberculosis partial length PknB (M1 to G279 residues) expressed in mammalian expression system
[13] = Selectivity ratio of Kd for human full length GSK-3 beta (M1 to T433 residues) expressed in mammalian expression system to Kd for Mycobacterium tuberculosis partial length PknB (M1 to G279 residues) expressed in mammalian expression system
[14] = Selectivity ratio of Kd for human partial length Pim1 (A15 to K313 residues ) expressed in bacterial expression system to Kd for Mycobacterium tuberculosis partial length PknB (M1 to G279 residues) expressed in mammalian expression system

Structure (SMILES)	IC50 [1]	Ki [1]	IC50 [2]	Kd [3]	MIC [4]	survival at 120 h, 5 µM [5]	CC50 (THP-1)	logD [6]	Kd [7]	Kd (CDK4/Cyclin D3)	Kd [8]	Kd [9]	Kd [10]	Selectivity ratio [11]	Selectivity ratio [12]	Selectivity ratio [13]	Selectivity ratio [14]
CN1CCN(c2ccc(Nc3nccc(-c4cccc(C#N)c4)n3)cc2C(F)(F)F)CC1	2500 nM	700 nM	> 40000 nM	73 nM													
CN1CCN(c2ccc(Nc3nccc(-c4ccc5ccccc5c4)n3)cc2C(F)(F)F)CC1	3400 nM	970 nM	> 40000 nM	430 nM	6 µM (≈ 2.78 µg/mL)	100%	3040 nM	> 5.7									
CN1CCN(c2ccc(Nc3nccc(-c4cccc(F)c4)n3)cc2C(F)(F)F)CC1	6100 nM	1800 nM	24000 nM	710 nM													
CN1CCN(c2ccc(Nc3nccc(-c4ccc(F)cc4)n3)cc2C(F)(F)F)CC1	> 40000 nM	> 12000 nM	12000 nM	3000 nM													
CN1CCN(c2ccc(Nc3nccc(-c4ccccc4)n3)cc2C(F)(F)F)CC1	4600 nM	1300 nM	> 40000 nM	1200 nM	25 µM (≈ 10.3 µg/mL)	96%	4100 nM	4.8	> 10000 nM	1200 nM	430 nM	2800 nM	5200 nM				
CN1CCN(c2ccc(Nc3nccc(-c4cccc(Cl)c4)n3)cc2C(F)(F)F)CC1	4300 nM	1200 nM	> 40000 nM	340 nM	12 µM (≈ 5.37 µg/mL)	57%	5280 nM	> 6	> 10000 nM	3000 nM	180 nM	9300 nM	> 10000 nM				
CN1CCN(c2ccc(Nc3nccc(-c4cccc([N+](=O)[O-])c4)n3)cc2C(F)(F)F)CC1	1200 nM	320 nM	> 40000 nM	34 nM	19 µM (≈ 8.71 µg/mL)	0%	3890 nM	4.5	5800 nM	910 nM	19 nM	3800 nM	2200 nM	> 100	48	> 100	> 100
Cc1ccc(-c2ccnc(Nc3ccc(N4CCN(C)CC4)c(C(F)(F)F)c3)n2)cc1	1600 nM	440 nM	> 40000 nM	30 nM	12 µM (≈ 5.13 µg/mL)	0%	4940 nM	> 5.85									
CNc1cc(-c2ccnc(Nc3ccc(N4CCN(C)CC4)c(C(F)(F)F)c3)n2)ccn1	9400 nM	2700 nM	39000 nM	920 nM													
CN1CCN(c2ccc(Nc3nccc(-c4ccc(Cl)cc4)n3)cc2C(F)(F)F)CC1	8100 nM	2400 nM	> 40000 nM	2200 nM													
CN1CCN(c2ccc(Nc3nccc(-c4cccnc4)n3)cc2C(F)(F)F)CC1	1700 nM	470 nM	9300 nM	61 nM	100 µM (≈ 41.4 µg/mL)	56%	1060 nM	3.53									
CN1CCN(c2ccc(Nc3nccc(-c4ccc([N+](=O)[O-])cc4)n3)cc2C(F)(F)F)CC1	3800 nM	1100 nM	180 nM	410 nM													
CN1CCN(c2ccc(Nc3nccc(-c4ccc(C#N)cc4)n3)cc2C(F)(F)F)CC1	5100 nM	1500 nM	13000 nM	700 nM													
CN1CCN(c2ccc(Nc3nccc(-c4ccnc(NCc5ccccc5)c4)n3)cc2C(F)(F)F)CC1	7900 nM	2300 nM	7300 nM	2100 nM													
COc1cccc(-c2ccnc(Nc3ccc(N4CCN(C)CC4)c(C(F)(F)F)c3)n2)c1	6600 nM	1900 nM	10000 nM	660 nM													
CN1CCN(c2ccc(Nc3nccc(-c4ccnc(Cl)c4)n3)cc2C(F)(F)F)CC1	1100 nM	290 nM	7200 nM	48 nM	25 µM (≈ 11.2 µg/mL)	89%	1140 nM	4.3	690 nM	440 nM	47 nM	2600 nM	2200 nM				
